# Where two headings read alike, the source gives them in different places.
# Tests used:
# [1] = system: MCF-7 breast cancer cell line clusters; assay: Microwell-based CTC cluster assay, doxorubicin screening on MCF-7 clusters (live/dead staining); type: cell-based; conditions: Homo sapiens, MCF7, normoxia, 72 hrs exposure from Day 3, viability by Calcein-AM/EtBr
# Protocol: Cell Culture of MCF-7 Cancer Cell Line MCF-7 (HTB-22TM, ATCC, USA), a human breast adenocarcinoma cell line, was first used to mimic CTC cluster formation. Cell lines were maintained in supplemented high-glucose Dulbecco's modified Eagle's medium (DMEM) (Invitrogen, USA) with 10% fetal bovine serum (FBS) (Invitrogen, USA) together with 1% penicillin-streptomycin (Invitrogen, USA). Cultures were kept at 37° C. in a humidified atmosphere containing 5% (v/v) CO2 till 80% confluence. Cells were cultured in sterile 25 cm^2 flasks (BD Bioscience, USA) and sub-cultivated two times a week with media replaced every 48 h. Sub-confluent monolayers were dissociated using 0.01% otrypsin and 5.3 mM EDTA solution (Lonza, Switzerland).
# The closed system was then incubated at 37° C., 5% CO2 till drug treatment at Day 3 or Day 11 for MCF-7 cultures and clinical sample cultures respectively.
# A stock solution was prepared in 100% DMSO and subsequently was diluted in supplemented DMEM (1 μl to 1 ml of media), resulting in ˜0.1% of DMSO concentration (1 μM drug concentration), which has negligible effects on cells.
# To establish the IC50 values, z-stacks images of 25 microwells from each channel were obtained with a confocal microscope.
# MCF-7 monolayer cultures = conditions: monolayer cultures with lower cell counts, <10k cells per ml; read-out: IC50 value (previous studies); cited from earlier work
# [2] = system: clinical human primary cancer cells cultured from blood samples (CD45- cells); assay: Microwell-based CTC cluster assay, doxorubicin screening on clusters cultured from breast cancer patient blood samples; conditions: for IC50 / viability at 1 µM: Homo sapiens; for IC50: 72 hrs exposure; for viability at 1 µM: 72 hrs
smiles,measurement,setting,value
"COc1cccc2c1C(=O)c1c(O)c3c(c(O)c1C2=O)C[C@@](O)(C(=O)CO)C[C@@H]3O[C@H]1C[C@H](N)[C@H](O)[C@H](C)O1 [doxorubicin, Doxorubicin]",IC50,[1],780 ± 20 nM
same,IC50,MCF-7 monolayer cultures,~500 nM
same,IC50,"[2]; 72 h, read-out: IC50 value, sample CES021, Post treatment",> 1000 nM
same,IC50,"[2]; 72 h, read-out: IC50 value, sample CES053, Post treatment",340 nM
same,IC50,"[2]; 72 h, read-out: IC50 value, sample P2B28, Post treatment",> 1000 nM
same,IC50,"[2]; 72 h, read-out: IC50 value, sample P2B29, Post treatment",860 nM
same,viability at 1 µM,"[2]; 72 h, read-out: Percentage of viable CD45-cells, CES21 Post-treatment, 1.6% of drug (1 μM)",96.4%
same,viability at 1 µM,"[2]; 72 h, read-out: Percentage of viable CD45-cells, CES21 Post-treatment, 10.9% of drug (1 μM)",94.9%
same,viability at 1 µM,"[2]; 72 h, read-out: Percentage of viable CD45-cells, CES21 Post-treatment, 34.4% of drug (1 μM)",92%
same,viability at 1 µM,"[2]; 72 h, read-out: Percentage of viable CD45-cells, CES21 Post-treatment, 65.6% of drug (1 μM)",78.6%
same,viability at 1 µM,"[2]; 72 h, read-out: Percentage of viable CD45-cells, CES21 Post-treatment, 89.1% of drug (1 μM)",71.1%
same,viability at 1 µM,"[2]; 72 h, read-out: Percentage of viable CD45-cells, CES21 Post-treatment, 98.4% of drug (1 μM)",66.9%
same,viability at 1 µM,"[2]; 72 h, read-out: Percentage of viable CD45-cells, CES21 Post-treatment, 100.0% of drug (1 μM)",67.9%
same,viability at 1 µM,"[2]; 72 h, read-out: Percentage of viable CD45-cells, CES053 Post-treatment, 1.6% of drug (1 μM)",51.7%
same,viability at 1 µM,"[2]; 72 h, read-out: Percentage of viable CD45-cells, CES053 Post-treatment, 10.9% of drug (1 μM)",51.4%
same,viability at 1 µM,"[2]; 72 h, read-out: Percentage of viable CD45-cells, CES053 Post-treatment, 34.4% of drug (1 μM)",48%
same,viability at 1 µM,"[2]; 72 h, read-out: Percentage of viable CD45-cells, CES053 Post-treatment, 65.6% of drug (1 μM)",52.2%
same,viability at 1 µM,"[2]; 72 h, read-out: Percentage of viable CD45-cells, CES053 Post-treatment, 89.1% of drug (1 μM)",42.8%
same,viability at 1 µM,"[2]; 72 h, read-out: Percentage of viable CD45-cells, CES053 Post-treatment, 98.4% of drug (1 μM)",41%
same,viability at 1 µM,"[2]; 72 h, read-out: Percentage of viable CD45-cells, CES053 Post-treatment, 100.0% of drug (1 μM)",39.8%
same,viability at 1 µM,"[2]; 72 h, read-out: Percentage of viable CD45-cells, P2B28 Post-treatment, 1.6% of drug (1 μM)",39.3%
same,viability at 1 µM,"[2]; 72 h, read-out: Percentage of viable CD45-cells, P2B28 Post-treatment, 10.9% of drug (1 μM)",32.6%
same,viability at 1 µM,"[2]; 72 h, read-out: Percentage of viable CD45-cells, P2B28 Post-treatment, 34.4% of drug (1 μM)",39.2%
same,viability at 1 µM,"[2]; 72 h, read-out: Percentage of viable CD45-cells, P2B28 Post-treatment, 65.6% of drug (1 μM)",28.8%
same,viability at 1 µM,"[2]; 72 h, read-out: Percentage of viable CD45-cells, P2B28 Post-treatment, 89.1% of drug (1 μM)",27.6%
same,viability at 1 µM,"[2]; 72 h, read-out: Percentage of viable CD45-cells, P2B28 Post-treatment, 98.4% of drug (1 μM)",24.4%
same,viability at 1 µM,"[2]; 72 h, read-out: Percentage of viable CD45-cells, P2B28 Post-treatment, 100.0% of drug (1 μM)",0%
same,viability at 1 µM,"[2]; 72 h, read-out: Percentage of viable CD45-cells, P2B29 Post-treatment, 1.6% of drug (1 μM)",73.6%
same,viability at 1 µM,"[2]; 72 h, read-out: Percentage of viable CD45-cells, P2B29 Post-treatment, 10.9% of drug (1 μM)",56.2%
same,viability at 1 µM,"[2]; 72 h, read-out: Percentage of viable CD45-cells, P2B29 Post-treatment, 34.4% of drug (1 μM)",18.5%
same,viability at 1 µM,"[2]; 72 h, read-out: Percentage of viable CD45-cells, P2B29 Post-treatment, 65.6% of drug (1 μM)",7.7%
same,viability at 1 µM,"[2]; 72 h, read-out: Percentage of viable CD45-cells, P2B29 Post-treatment, 89.1% of drug (1 μM)",4.1%
same,viability at 1 µM,"[2]; 72 h, read-out: Percentage of viable CD45-cells, P2B29 Post-treatment, 98.4% of drug (1 μM)",1.1%
same,viability at 1 µM,"[2]; 72 h, read-out: Percentage of viable CD45-cells, P2B29 Post-treatment, 100.0% of drug (1 μM)",0.4%
same,IC50,"[2]; read-out: IC50 value, sample CTB039, Pre-treatment",850 nM
same,IC50,"[2]; read-out: IC50 value, sample P2B29, Pre-treatment",940 ± 40 nM
same,viability at 1 µM,"[2]; read-out: Percentage of viable CD45-cells, CTB039 Pre-treatment, 1.6% of drug (1 μM)",85.5%
same,viability at 1 µM,"[2]; read-out: Percentage of viable CD45-cells, CTB039 Pre-treatment, 10.9% of drug (1 μM)",81.6%
same,viability at 1 µM,"[2]; read-out: Percentage of viable CD45-cells, CTB039 Pre-treatment, 34.4% of drug (1 μM)",69.7%
same,viability at 1 µM,"[2]; read-out: Percentage of viable CD45-cells, CTB039 Pre-treatment, 65.6% of drug (1 μM)",58.3%
same,viability at 1 µM,"[2]; read-out: Percentage of viable CD45-cells, CTB039 Pre-treatment, 89.1% of drug (1 μM)",48.3%
same,viability at 1 µM,"[2]; read-out: Percentage of viable CD45-cells, CTB039 Pre-treatment, 98.4% of drug (1 μM)",44.2%
same,viability at 1 µM,"[2]; read-out: Percentage of viable CD45-cells, CTB039 Pre-treatment, 100.0% of drug (1 μM)",40.8%
same,viability at 1 µM,"[2]; read-out: Percentage of viable CD45-cells, P2B29 Pre-treatment, 1.6% of drug (1 μM)",96.6%
same,viability at 1 µM,"[2]; read-out: Percentage of viable CD45-cells, P2B29 Pre-treatment, 10.9% of drug (1 μM)",86.4%
same,viability at 1 µM,"[2]; read-out: Percentage of viable CD45-cells, P2B29 Pre-treatment, 34.4% of drug (1 μM)",26.2%
same,viability at 1 µM,"[2]; read-out: Percentage of viable CD45-cells, P2B29 Pre-treatment, 65.6% of drug (1 μM)",3.9%
same,viability at 1 µM,"[2]; read-out: Percentage of viable CD45-cells, P2B29 Pre-treatment, 89.1% of drug (1 μM)",2.6%
same,viability at 1 µM,"[2]; read-out: Percentage of viable CD45-cells, P2B29 Pre-treatment, 98.4% of drug (1 μM)",0.7%
same,viability at 1 µM,"[2]; read-out: Percentage of viable CD45-cells, P2B29 Pre-treatment, 100.0% of drug (1 μM)",0.4%
same,"average correlation coefficient, percentage of microwells with cluster vs concentration of doxorubicin","[2]; clinical sample cultures, FIG. 15A",−0.71
same,proportion of microwells with presence of macrophage-like cells vs drug concentration,"[2]; clinical sample cultures, FIG. 15B",did not seem to correlate with drug concentration

# — patent publication US20190161736A1, “CELL CULTURE” (National University of Singapore, priority 2016, published 2019)
